Earlier results, collected in patent US8809393B2, “Injectable preparations of diclofenac and its pharmaceutically acceptable salts” (Troikaa Pharmaceuticals Ltd, priority 2005, dated 2014).

System: erythrocytes
Settings: aqueous solution of 2% propylene glycol iso-osmotic with serum, in 45 min

Compound: CC(O)CO (stereo not shown) [propylene glycol]
- haemolysis of erythrocytes: 100%
